Source: patent publication US20240067657A1, “AMIDO-SUBSTITUTED PYRIDYL COMPOUNDS AND METHODS OF USE THEREOF FOR THE TREATMENT OF HERPESVIRUSES” (Merck Sharp & Dohme LLC, priority 2020, published 2024)
Like-named read-outs stand apart in the source and are kept apart here.

How the values were obtained:
[1] = target: T1, Human cytomegalovirus DNA polymerase (Human cytomegalovirus, UniProt P08546); assay: HCMV polymerase assay (AlphaLISA, IC50); type: biochemical; conditions: polymerase assay of Example 190
T1 construct: made in house; host or cells: SF21 insect cells (baculovirus vector)
T1 sequence (P08546 whole entry): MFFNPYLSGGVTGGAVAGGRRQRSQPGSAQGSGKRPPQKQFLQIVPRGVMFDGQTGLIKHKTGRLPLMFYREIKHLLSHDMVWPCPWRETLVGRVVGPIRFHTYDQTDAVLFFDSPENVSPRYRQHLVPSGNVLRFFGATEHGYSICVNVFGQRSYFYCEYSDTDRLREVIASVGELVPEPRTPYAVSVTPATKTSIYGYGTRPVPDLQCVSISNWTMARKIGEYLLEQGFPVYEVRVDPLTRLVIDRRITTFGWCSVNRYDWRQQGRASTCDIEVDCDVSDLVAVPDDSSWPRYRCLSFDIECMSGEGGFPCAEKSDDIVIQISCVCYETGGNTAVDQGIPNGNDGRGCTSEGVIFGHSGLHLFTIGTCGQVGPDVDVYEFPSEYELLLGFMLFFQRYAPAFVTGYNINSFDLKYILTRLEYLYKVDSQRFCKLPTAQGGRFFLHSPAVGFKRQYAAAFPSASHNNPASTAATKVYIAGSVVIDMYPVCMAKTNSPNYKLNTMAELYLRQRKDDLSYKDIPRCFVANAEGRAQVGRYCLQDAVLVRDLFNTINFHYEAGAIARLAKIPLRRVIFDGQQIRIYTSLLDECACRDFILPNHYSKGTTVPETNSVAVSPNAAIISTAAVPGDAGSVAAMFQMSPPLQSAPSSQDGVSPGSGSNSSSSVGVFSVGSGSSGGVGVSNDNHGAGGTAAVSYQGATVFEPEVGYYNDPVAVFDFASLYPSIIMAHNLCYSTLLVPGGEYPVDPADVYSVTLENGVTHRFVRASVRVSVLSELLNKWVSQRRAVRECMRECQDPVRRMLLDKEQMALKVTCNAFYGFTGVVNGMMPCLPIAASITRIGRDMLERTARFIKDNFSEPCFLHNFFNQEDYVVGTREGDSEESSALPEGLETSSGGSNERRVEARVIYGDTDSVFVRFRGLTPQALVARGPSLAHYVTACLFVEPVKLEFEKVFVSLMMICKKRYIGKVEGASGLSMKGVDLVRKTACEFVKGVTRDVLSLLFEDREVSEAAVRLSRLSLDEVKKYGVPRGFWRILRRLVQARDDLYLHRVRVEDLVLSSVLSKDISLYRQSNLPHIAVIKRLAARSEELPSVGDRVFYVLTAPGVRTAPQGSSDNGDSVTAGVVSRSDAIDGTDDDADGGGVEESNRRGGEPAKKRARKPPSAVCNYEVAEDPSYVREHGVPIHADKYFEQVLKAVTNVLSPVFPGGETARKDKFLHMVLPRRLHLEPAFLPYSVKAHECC
How it was run: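 Baculovirus-expressed polymerase (HCMV 0.2 nM, VZV 0.4 nM final) preincubated 30 min at room temperature with compound in pH 7.5 HEPES buffer; reaction started with 1.6 nM DIG-primer/template and nM dNTPs including biotin-dUTP, run 60 min at 37° C. Incorporation detected by AlphaLISA; IC50 from 4-parameter fit.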

[2] = target: T2, varicella zoster virus DNA polymerase (Varicella-zoster virus, UniProt P09252); assay: VZV polymerase assay (AlphaLISA, IC50); type: biochemical; conditions: polymerase assay of Example 190
T2 construct: made in house; host or cells: SF21 insect cells (baculovirus vector)
T2 sequence (P09252 whole entry): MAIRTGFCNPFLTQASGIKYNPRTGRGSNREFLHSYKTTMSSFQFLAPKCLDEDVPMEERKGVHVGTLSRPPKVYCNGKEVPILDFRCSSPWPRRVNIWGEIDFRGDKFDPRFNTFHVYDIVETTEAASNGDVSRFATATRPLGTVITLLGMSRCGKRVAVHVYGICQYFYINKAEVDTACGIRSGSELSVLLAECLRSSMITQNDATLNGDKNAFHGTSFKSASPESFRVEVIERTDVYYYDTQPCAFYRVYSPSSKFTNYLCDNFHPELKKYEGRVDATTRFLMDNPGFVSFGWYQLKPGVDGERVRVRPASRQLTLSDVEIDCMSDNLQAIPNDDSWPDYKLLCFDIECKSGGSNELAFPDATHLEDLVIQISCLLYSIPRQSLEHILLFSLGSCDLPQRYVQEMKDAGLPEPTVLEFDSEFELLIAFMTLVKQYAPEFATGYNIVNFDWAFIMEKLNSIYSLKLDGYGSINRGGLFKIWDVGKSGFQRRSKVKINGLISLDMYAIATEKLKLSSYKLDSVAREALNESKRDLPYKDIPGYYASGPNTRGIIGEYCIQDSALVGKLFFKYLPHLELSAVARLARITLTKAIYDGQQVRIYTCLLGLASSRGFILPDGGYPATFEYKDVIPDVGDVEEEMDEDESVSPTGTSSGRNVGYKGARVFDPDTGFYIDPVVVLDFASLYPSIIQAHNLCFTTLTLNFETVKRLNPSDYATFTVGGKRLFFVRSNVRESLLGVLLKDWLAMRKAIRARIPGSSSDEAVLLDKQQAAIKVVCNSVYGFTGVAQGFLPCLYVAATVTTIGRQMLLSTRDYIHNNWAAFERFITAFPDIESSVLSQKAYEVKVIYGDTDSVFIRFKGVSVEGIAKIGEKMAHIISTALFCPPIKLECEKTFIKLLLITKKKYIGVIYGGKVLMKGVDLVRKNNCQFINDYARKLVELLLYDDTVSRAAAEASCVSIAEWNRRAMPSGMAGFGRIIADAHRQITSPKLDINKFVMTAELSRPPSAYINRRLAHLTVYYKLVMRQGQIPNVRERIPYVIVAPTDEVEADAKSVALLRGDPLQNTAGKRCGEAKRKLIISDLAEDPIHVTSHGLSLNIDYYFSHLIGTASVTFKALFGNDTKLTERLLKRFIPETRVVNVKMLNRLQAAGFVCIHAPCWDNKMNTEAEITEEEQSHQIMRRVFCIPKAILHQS
Protocol: Human cytomegalovirus and varicella zoster virus DNA polymerases were expressed via baculovirus vector in SF21 cells and purified. Heterodimeric nucleic acid substrate used in the herpesvirus polymerase reactions was generated by annealing a 59-mer template to a 17-mer digoxigenin-labeled primer. Polymerase (HCMV final concentration of 0.2 nM; VZV final concentration of 0.4 nM) was combined with an inhibitor compound or DMSO in assay buffer (10 mM HEPES, pH 7.5, 25 mM KCl, 25 mM NaCl, 5 mM MgCl2, 5% glycerol, 0.67 mg/ml bovine serum albuminutes, and 1 mM tris(2-carboxyethyl)phosphine), and this mixture was pre-incubated for 30 minutes at room temperature in 384-well microtiter plates. The polymerization reaction was initiated by the addition of template/primer substrate (final concentration: 1.6 nM), and dNTPs (final concentration: 24 nM dCTP, 24 nMdGTP, 16 nM dATP, 16 nM dTTP, and 0.8 nM biotin-dUTP). After 60 minutes incubation at 37° C., reactions were terminated with quench buffer (25 mM HEPES pH 7.5, 100 mM NaCl, 0.25% Tween-20, 12 mM EDTA, and 1 mg/ml bovine serum albumin). Incorporation of biotinylated UTP was detected with 2.5-5 ug/ml anti-DIG AlphaLISA acceptor beads and 5-10 ug/ml streptavidin AlphaLISA donor beads (Perkin Elmer). Compound effects were normalized to the window defined by the controls (DMSO only and pre-quenched wells), and were fit using a 4-parameter algorithm to report an IC50.

[3] = test system: HCMV Strain AD169 in MRC-5 cells; assay: Viral qPCR assay HCMV (V0/V1, V2/V3), EC50; type: cell-based; conditions: Human betaherpesvirus 5, AD169, MRC5, viral qPCR assay of Example 191; read-out: HCMV Cell (EC50)
How it was run: (§1)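 Infected cells added to compounds (10-point 3-fold series), ~72 h at 37 °C, then lysed; viral genomes by TaqMan qPCR against plasmid standard, normalized to PPIA in V0/V1 only, EC50 from 4-parameter fit. HCMV AD169, 0.05-0.1 pfu/cell, ± 50% FBS; VZV 0.04-0.1 pfu/cell; HSV-1 F 0.0005-0.004 pfu/cell.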

[4] = test system: VZV in MeWo or MRC5 cells; assay: Viral qPCR assay VZV (V0/V1, V2/V3), EC50; type: cell-based; conditions: 10%
How it was run: as §1

[5] = test system: HSV-1 Strain F in Vero or MRC5 cells; assay: Viral qPCR assay HSV-1 (V0/V1, V2/V3), EC50; type: cell-based; conditions: 10%
How it was run: as §1

[6] = Human alphaherpesvirus 3, MeWo, MEWO cells, read-out: VZV Cell (EC50) MEWO 10%
[7] = Human alphaherpesvirus 1, Vero, VERO cells, read-out: HSV1 Cell (EC50) VERO 10%
[8] = Human alphaherpesvirus 3, MRC5, MRC5 cells, read-out: VZV Cell (EC50) MRC5 10%
[9] = Human alphaherpesvirus 1, MRC5, MRC5 cells, read-out: HSV1 Cell (EC50) MRC5 10%

Row | Structure (SMILES) | IC50 [1] [nM] | IC50 [2] [nM] | EC50 [3] [nM] | EC50 [4, 6] [nM] | EC50 [5, 7] [nM] | EC50 [4, 8] [nM] | EC50 [5, 9] [nM]
1 | O=C(NCc1ccc(Cl)cc1)c1cc(O[C@H]2CCN3C(=O)OC[C@@H]3C2)c(-c2cnn(CC(F)(F)F)c2)cn1 [Compound 17] | 23.1 | 21 | 380 | 368 | 426 |  | 
2 | O=C(NCc1ccc(Cl)cc1)c1cc(O[C@H]2CCN3C(=O)OC[C@@H]3C2)c(-c2cc[nH]n2)cn1 [Compound 18] | 15.7 | 10.5 | 120 | 392 | 836 | 126 | 194
3 | O=C(NCc1ccc(Cl)cc1)c1cc(O[C@H]2CCN3C(=O)OC[C@@H]3C2)c(-c2cnn(C3CC3)c2)cn1 [Compound 19] | 17.4 | 9.12 | 214 | 105 | 316 |  | 
4 | O=C(NCc1ccc(Cl)cc1)c1cc(O[C@H]2CCN3C(=O)OC[C@@H]3C2)c(-c2cnn3c2COCC3)cn1 [Compound 20] | 16.4 | 12.8 | 132 |  |  | 343 | 235
5 | CC(C)n1cc(-c2cnc(C(=O)NCc3ccc(Cl)cc3)cc2O[C@H]2CCN3C(=O)OC[C@@H]3C2)cn1 [Compound 21] | 15.6 | 13.9 | 282 | 205 | 206 |  | 
6 | O=C(NCc1ccc(Cl)cc1)c1cc(O[C@H]2CCN3C(=O)OC[C@@H]3C2)c(-c2cnc(CO)s2)cn1 [Compound 22] | 0.222 | 1.12 | 68.8 |  | 224 | 109 | 150
7 | O=C(NCc1ccc(Cl)cc1)c1cc(O[C@H]2CCN3C(=O)OC[C@@H]3C2)c(-c2cnco2)cn1 [Compound 24] | 1.6 | ≤ 0.444 | 98.7 |  |  | 121 | 56.4
8 | O=C(NCc1ccc(Cl)cc1)c1cc(O[C@H]2CCN3C(=O)OC[C@@H]3C2)c(-c2ccn(C(F)F)n2)cn1 [Compound 26] | 13.9 | 13.9 | 280 |  | 119 | 4590 | ≥ 80200
9 | O=C(NCc1ccc(Cl)cc1)c1cc(O[C@H]2CCN3C(=O)OC[C@@H]3C2)c(-c2cnn(CC(F)F)c2)cn1 [Compound 27] | 14.1 | 12.5 | 138 | 248 | 300 |  | 
10 | COCCn1ccc(-c2cnc(C(=O)NCc3ccc(Cl)cc3)cc2O[C@H]2CCN3C(=O)OC[C@@H]3C2)n1 [Compound 28] | 14.7 | 12.7 | 325 | 422 | 327 |  | 
11 | Cn1cc(-c2cnc(C(=O)NCc3ccc(Cl)cc3)cc2O[C@H]2CCN3C(=O)OC[C@@H]3C2)cn1 [Compound 29] | 9.24 | 7.85 | 107 | 51.6 | 184 | 109 | 102
12 | Cn1ccc(-c2cnc(C(=O)NCc3ccc(Cl)cc3)cc2O[C@H]2CCN3C(=O)OC[C@@H]3C2)n1 [Compound 30] | 9.86 | 16.3 | 116 | 82 | 132 | 121 | 78.2
13 | COCCn1cc(-c2cnc(C(=O)NCc3ccc(Cl)cc3)cc2O[C@H]2CCN3C(=O)OC[C@@H]3C2)cn1 [Compound 31] | 8.59 | 6.54 | 116 | 111 | 309 | 260 | 224
14 | Cc1ncc(-c2cnc(C(=O)NCc3ccc(Cl)cc3)cc2O[C@H]2CCN3C(=O)OC[C@@H]3C2)o1 [Compound 32] | 2.73 | 0.55 | 76.8 |  |  | 106 | 75
